Where two headings read alike, the source gives them in different places.
Key:
Format in all cases: binding
[1] = target: T1, HeLa cell extract proteins (Homo sapiens, UniProt P46109); details: HeLa; protein CRKL
T1 construct: endogenous in cells; host or cells: HeLa cell extract

[2] = target: T2, HeLa cell extract proteins (Homo sapiens, UniProt P26368); details: protein U2AF2; HeLa
T2 construct: endogenous in cells; host or cells: HeLa cell extract

[3] = target: T3, HeLa cell extract proteins (Homo sapiens, UniProt Q9UJ70); details: captured protein NAGK; HeLa
T3 construct: endogenous in cells; host or cells: HeLa cell extract
T3 sequence (Q9UJ70 whole entry): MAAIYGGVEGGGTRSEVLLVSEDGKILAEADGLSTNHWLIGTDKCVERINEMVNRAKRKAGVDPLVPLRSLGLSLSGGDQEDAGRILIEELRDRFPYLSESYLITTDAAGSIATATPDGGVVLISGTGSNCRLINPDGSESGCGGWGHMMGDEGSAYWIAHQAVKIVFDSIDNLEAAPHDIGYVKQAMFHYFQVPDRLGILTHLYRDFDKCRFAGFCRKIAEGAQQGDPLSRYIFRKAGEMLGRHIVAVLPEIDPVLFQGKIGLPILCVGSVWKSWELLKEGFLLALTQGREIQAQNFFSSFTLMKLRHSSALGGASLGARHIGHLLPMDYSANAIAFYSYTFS

[4] = target: T4, HeLa cell extract proteins (Homo sapiens, UniProt O00505)
T4 construct: endogenous in cells; host or cells: HeLa cell extract
T4 sequence (O00505 1-521): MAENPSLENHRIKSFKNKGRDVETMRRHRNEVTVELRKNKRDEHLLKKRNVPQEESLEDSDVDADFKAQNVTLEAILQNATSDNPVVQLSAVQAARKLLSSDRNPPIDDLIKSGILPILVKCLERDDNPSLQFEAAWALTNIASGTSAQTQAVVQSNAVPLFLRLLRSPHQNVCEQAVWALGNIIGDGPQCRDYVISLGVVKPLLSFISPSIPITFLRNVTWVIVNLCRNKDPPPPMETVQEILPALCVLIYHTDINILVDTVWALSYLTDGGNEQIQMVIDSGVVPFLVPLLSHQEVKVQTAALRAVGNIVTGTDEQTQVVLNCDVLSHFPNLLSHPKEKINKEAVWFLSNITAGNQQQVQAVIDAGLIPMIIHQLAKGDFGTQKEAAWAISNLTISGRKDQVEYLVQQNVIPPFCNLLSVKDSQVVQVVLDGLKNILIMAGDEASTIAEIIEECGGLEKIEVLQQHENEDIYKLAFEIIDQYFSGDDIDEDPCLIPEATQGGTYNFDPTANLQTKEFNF

[5] = target: T5, HeLa cell extract proteins (Homo sapiens, UniProt P10619)
T5 construct: endogenous in cells; host or cells: HeLa cell extract
T5 sequence (P10619 29-480): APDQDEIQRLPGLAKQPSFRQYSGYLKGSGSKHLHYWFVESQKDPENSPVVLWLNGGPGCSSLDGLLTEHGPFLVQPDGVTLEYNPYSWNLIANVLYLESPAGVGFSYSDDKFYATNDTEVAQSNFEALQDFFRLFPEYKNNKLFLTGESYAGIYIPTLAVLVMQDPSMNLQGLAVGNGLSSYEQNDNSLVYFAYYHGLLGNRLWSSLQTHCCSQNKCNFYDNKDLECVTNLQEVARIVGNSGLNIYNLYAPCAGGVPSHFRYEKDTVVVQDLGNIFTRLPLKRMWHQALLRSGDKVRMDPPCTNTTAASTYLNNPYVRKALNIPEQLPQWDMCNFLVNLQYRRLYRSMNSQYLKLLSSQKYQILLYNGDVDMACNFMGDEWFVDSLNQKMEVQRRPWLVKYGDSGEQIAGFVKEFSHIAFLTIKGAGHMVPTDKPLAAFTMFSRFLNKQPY

[6] = target: T6, HeLa cell extract proteins (Homo sapiens, UniProt P35268)
T6 construct: endogenous in cells; host or cells: HeLa cell extract

[7] = target: T7, HeLa cell extract proteins (Homo sapiens, UniProt Q9UNM6)
T7 construct: endogenous in cells; host or cells: HeLa cell extract
T7 sequence (Q9UNM6 1-376): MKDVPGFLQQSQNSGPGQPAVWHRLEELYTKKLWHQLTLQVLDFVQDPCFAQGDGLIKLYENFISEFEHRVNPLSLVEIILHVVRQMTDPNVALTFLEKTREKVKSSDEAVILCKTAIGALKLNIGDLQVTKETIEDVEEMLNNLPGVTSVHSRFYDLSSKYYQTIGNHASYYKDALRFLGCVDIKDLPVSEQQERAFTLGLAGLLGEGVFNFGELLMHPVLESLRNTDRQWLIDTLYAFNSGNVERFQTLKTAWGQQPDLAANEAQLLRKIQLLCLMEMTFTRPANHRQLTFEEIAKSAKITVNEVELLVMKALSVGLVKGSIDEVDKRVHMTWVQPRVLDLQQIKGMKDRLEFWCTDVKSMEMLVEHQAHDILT

[8] = target: T8, HeLa cell extract proteins (Homo sapiens, UniProt Q13535)
T8 construct: endogenous in cells; host or cells: HeLa cell extract
T8 sequence (Q13535 whole entry): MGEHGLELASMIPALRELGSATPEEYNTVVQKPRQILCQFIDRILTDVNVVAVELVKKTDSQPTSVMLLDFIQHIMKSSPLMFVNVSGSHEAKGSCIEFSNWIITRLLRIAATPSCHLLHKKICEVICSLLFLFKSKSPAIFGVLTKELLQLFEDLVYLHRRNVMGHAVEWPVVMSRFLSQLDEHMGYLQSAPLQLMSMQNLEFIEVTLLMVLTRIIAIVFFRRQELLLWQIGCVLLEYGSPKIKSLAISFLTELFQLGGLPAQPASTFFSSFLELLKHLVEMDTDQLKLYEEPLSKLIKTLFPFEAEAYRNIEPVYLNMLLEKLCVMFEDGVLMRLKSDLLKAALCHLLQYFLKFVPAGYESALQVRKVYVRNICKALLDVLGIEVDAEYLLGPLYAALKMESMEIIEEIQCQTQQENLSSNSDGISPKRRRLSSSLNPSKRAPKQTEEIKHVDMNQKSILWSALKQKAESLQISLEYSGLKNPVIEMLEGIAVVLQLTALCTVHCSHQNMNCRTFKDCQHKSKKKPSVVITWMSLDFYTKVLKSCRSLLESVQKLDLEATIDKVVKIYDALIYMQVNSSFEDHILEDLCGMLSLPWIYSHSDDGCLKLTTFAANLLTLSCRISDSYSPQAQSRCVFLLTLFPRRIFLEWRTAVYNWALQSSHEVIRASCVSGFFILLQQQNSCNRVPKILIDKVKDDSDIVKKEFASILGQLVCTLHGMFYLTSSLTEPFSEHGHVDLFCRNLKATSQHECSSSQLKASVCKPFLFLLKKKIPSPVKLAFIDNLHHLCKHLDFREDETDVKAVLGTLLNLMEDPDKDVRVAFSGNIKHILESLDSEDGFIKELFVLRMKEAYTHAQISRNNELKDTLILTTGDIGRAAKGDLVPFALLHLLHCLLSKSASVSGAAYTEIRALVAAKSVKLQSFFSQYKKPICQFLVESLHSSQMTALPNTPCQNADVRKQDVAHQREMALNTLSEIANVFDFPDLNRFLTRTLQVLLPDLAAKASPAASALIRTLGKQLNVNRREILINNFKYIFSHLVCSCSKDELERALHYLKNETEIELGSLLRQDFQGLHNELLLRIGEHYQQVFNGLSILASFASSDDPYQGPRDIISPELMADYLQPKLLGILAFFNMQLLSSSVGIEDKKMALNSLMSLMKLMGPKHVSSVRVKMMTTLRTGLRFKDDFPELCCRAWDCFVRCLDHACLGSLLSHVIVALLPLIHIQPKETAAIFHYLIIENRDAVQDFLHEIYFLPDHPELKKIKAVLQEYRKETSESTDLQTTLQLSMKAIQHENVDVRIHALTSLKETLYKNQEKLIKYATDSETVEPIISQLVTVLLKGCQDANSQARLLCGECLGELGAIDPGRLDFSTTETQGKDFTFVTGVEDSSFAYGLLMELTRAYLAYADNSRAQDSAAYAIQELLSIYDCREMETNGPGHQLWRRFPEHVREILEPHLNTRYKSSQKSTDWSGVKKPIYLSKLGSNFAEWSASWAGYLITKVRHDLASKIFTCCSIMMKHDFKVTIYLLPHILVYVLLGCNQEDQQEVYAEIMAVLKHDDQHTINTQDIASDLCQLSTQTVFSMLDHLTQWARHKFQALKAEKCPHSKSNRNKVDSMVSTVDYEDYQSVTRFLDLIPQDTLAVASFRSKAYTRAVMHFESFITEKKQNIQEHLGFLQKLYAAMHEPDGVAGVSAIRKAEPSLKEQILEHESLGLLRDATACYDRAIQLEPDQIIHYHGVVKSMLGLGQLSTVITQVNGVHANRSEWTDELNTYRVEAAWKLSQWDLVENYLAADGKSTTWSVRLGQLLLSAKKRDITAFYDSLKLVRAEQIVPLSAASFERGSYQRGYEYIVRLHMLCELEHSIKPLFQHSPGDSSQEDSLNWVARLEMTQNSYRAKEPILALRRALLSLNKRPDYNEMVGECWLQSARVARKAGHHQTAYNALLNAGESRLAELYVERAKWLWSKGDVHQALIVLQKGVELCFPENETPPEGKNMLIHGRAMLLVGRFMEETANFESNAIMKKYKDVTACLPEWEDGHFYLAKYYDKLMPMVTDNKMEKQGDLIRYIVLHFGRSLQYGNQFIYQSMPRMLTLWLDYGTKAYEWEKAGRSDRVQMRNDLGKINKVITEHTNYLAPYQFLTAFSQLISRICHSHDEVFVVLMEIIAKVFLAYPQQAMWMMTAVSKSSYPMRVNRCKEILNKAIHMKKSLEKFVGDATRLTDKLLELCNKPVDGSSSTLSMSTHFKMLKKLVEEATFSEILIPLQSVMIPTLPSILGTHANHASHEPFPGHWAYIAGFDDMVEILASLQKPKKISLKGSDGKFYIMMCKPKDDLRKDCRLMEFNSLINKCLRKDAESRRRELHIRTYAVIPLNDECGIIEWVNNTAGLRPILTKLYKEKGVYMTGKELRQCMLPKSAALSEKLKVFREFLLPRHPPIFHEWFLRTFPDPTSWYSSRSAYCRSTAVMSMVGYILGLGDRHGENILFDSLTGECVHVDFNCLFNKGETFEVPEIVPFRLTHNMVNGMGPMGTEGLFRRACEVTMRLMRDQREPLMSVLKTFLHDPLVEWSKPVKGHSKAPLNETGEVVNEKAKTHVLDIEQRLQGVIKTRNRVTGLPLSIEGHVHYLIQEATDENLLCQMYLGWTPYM

[9] = target: T9, HeLa cell extract proteins (Homo sapiens, UniProt Q93099)
T9 construct: endogenous in cells; host or cells: HeLa cell extract
T9 sequence (Q93099 1-445): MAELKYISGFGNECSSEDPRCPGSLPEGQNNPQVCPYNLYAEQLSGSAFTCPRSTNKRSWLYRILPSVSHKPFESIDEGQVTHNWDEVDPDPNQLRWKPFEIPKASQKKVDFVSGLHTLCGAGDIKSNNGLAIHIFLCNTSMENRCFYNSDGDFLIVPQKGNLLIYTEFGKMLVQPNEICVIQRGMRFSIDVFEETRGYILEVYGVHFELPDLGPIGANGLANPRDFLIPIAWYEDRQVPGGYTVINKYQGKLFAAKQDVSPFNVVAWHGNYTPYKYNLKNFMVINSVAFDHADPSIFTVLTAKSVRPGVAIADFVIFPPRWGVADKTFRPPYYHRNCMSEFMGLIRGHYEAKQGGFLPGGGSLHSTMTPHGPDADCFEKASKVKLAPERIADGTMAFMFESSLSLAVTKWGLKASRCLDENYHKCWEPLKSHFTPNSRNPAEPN

[10] = target: T10, HeLa cell extract proteins (Homo sapiens, UniProt O75131)
T10 construct: endogenous in cells; host or cells: HeLa cell extract
T10 sequence (O75131 whole entry): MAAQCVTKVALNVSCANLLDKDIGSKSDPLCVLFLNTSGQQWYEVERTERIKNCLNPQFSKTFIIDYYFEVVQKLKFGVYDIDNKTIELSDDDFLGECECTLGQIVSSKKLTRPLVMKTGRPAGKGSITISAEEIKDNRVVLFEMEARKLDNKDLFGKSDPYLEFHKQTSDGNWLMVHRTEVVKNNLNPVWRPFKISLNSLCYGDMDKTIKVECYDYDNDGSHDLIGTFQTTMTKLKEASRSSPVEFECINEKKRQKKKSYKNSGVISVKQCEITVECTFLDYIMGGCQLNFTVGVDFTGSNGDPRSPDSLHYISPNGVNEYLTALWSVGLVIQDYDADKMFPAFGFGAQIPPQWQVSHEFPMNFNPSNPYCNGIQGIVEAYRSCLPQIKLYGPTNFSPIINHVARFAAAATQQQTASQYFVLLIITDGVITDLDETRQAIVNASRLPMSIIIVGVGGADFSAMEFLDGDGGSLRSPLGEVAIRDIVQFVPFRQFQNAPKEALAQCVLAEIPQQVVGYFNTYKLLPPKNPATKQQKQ

[11] = target: T11, HeLa cell extract proteins (Homo sapiens, UniProt O14979)
T11 construct: endogenous in cells; host or cells: HeLa cell extract
T11 sequence (O14979 1-420): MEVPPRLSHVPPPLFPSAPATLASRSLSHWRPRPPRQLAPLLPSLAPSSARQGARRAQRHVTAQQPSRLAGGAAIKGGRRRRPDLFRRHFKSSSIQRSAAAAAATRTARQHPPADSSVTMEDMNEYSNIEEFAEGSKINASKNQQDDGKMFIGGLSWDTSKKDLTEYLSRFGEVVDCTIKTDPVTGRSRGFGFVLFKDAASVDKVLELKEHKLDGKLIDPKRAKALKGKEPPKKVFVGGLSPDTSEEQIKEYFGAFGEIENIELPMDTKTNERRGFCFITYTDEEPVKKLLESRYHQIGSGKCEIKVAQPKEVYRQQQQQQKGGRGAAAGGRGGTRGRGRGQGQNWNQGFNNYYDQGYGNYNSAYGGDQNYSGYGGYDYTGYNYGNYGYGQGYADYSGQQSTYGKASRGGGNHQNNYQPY

T2 sequence (P26368 whole entry): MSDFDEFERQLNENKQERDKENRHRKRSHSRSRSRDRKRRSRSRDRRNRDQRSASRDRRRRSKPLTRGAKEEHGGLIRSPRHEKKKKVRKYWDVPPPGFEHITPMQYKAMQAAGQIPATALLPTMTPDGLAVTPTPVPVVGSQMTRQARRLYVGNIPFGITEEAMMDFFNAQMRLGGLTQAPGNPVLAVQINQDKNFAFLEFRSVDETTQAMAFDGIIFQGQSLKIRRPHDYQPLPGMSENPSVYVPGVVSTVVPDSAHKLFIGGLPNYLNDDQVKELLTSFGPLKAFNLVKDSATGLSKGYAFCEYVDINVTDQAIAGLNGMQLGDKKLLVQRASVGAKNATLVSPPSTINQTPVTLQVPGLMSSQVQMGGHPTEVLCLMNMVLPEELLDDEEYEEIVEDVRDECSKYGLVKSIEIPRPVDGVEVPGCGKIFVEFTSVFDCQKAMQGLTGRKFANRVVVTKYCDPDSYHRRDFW
T1 sequence (P46109 whole entry): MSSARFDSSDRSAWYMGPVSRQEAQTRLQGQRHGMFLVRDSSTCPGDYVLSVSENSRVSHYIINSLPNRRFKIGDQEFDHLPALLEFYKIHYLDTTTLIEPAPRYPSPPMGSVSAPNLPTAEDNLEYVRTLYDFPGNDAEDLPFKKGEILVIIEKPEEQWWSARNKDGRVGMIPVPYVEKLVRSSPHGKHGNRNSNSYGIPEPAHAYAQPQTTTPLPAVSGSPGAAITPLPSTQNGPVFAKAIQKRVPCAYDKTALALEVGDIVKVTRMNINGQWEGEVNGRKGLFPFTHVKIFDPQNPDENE

| SMILES | fold changes relative to vehicle control [1] | fold changes relative to vehicle control [2] | fold changes relative to vehicle control [3] | fold changes relative to vehicle control ([4]; HeLa, captured protein KPNA3) | fold changes relative to vehicle control ([5]; HeLa, protein CTSA) | fold changes relative to vehicle control ([6]; HeLa, protein RPL22) | fold changes relative to vehicle control ([7]; protein PSMD13, HeLa) | fold changes relative to vehicle control ([8]; protein ATR, HeLa) | fold changes relative to vehicle control ([9]; HeLa, protein HGD) | fold changes relative to vehicle control ([10]; HeLa, protein CPNE3) | fold changes relative to vehicle control ([11]; HeLa, captured protein HNRPDL) | also measured |
| --- | --- | --- | --- | --- | --- | --- | --- | --- | --- | --- | --- | --- |
| CCCCCCOc1cccc(Cc2cnc(N)nc2N)c1 [compound 2] | 0.96 | 1.36 | 1.2 | – | – | – | – | – | – | – | – | – |
| NCCOCCOCC(=O)Nc1nc2ncc(CNc3ccc(C(=O)NC(CCC(=O)O)C(=O)O)cc3)nc2c(=O)[nH]1 (centres unmarked) [compound 6] | – | – | – | 1.02 | 0.87 | 1.2 | 1.02 | 0.69 | 1.01 | 0.91 | 1.06 | – |
| CCCCCCOc1ccc(Cc2cnc(N)nc2N)cc1 [compound 1] | 0.82 | 1.12 | 0.83 | – | – | – | – | – | – | – | – | – |
| Nc1nc2c(c(=O)[nH]1)N(C=O)C(CNc1ccc(C(=O)N[C@@H](CCC(=O)O)C(=O)O)cc1)CN2 (some centres unmarked) [LEU, leucovorin] | – | – | – | 0.9 | 1.01 | 0.86 | 0.95 | 0.66 | 0.87 | 1.23 | 1.09 | – |
| NCCCNc1ccc(C(=O)NC(CCC(=O)O)C(=O)O)cc1 (centres unmarked) [compound 7] | – | – | – | 0.87 | 1.13 | 1.19 | 0.86 | 0.54 | 0.8 | 0.85 | 1.03 | – |
| Nc1nc2[nH]cc(CCc3ccc(C(=O)N[C@@H](CCC(=O)O)C(=O)O)cc3)c2c(=O)[nH]1 [PTX, pemetrexed] | – | – | – | – | – | – | – | – | – | – | – | fold changes relative to vehicle control [4]: 0.9; fold changes relative to vehicle control [5]: 0.77; fold changes relative to vehicle control [6]: 0.98; fold changes relative to vehicle control [7]: 0.88; fold changes relative to vehicle control [8]: 0.79; fold changes relative to vehicle control [9]: 1.01; fold changes relative to vehicle control [10]: 0.77; fold changes relative to vehicle control [11]: 1.02 |
| Nc1nc2cccc(-c3ccccc3)c2n1Cc1ccc(Cl)c(Cl)c1 [compound 3] | 1.15 | 0.93 | 0.77 | – | – | – | – | – | – | – | – | – |

— paper PMC6199744, “Development of Chemical Proteomics for the Folateome and Analysis of the Kinetoplastid Folateome” (ACS Infectious Diseases, 2018)
